# According to US10030047B2 (Hoffmann-La Roche Inc., priority 2015, dated 2018):
# Test system: A. baumannii strain ATCC19606
# Assay: Minimum inhibitory concentration (MIC) determination, microbroth dilution (CLSI)
# Type: cell-based
# Settings: Acinetobacter baumannii; A. baumannii ATCC19606; CAMHB; read after 20 hours; >=80% growth inhibition; read-out: ATCC19606 MIC
# Protocol: The in vitro antimicrobial activity of the compounds was determined through microbroth minimum inhibitory concentration (MIC) methodology performed according to the Clinical and Laboratory Standard Institute guidelines (CLSI—M07-A9 Jan. 2012. Methods for Dilution Antimicrobial Susceptibility Tests for Bacteria That Grow Aerobically; Approved Standard—Ninth Edition, Clinical and Laboratory Standards Institute, Wayne/PA, US and the CLSI—M100-S24 Jan. 2014. Performance Standards for Antimicrobial Susceptibility Testing; Approved Standard—Fourth Informational Supplement, Clinical and Laboratory Standards Institute, Wayne/PA, US).
# The compound stock solution was freshly prepared at 10× the required top concentration for the MIC determination, i.e. at 1280 mg/L, by reconstitution of the dry compound in 50:50 water:DMSO.
# Polystyrene non-treated 96 wells microtiter plates were used for preparing panel containing compound serial twofold diluted at two times the final testing concentration (e.g. range from 64 to 0.06 μg/ml) in cation adjusted Mueller Hinton broth medium (CAMHB).
# Inoculum was prepared by the “direct colony suspension method”. Colonies of A. baumannii ATCC19606 or clinical isolates were suspended in saline solution and adjusted to 0.5 McFarland, diluted 100 times in CAMHB broth and 50 μl added to each well (final concentration of cells ˜5×10^(5) CFU/ml and Final volume/well of 100 μl). Microtiter plates were sealed and incubated at 35±2° C.
# MICs values were read after 20 hours of incubation and recorded as the lowest concentration of the antimicrobial that inhibits more or equal to 80% of growth of the organism as detected by the unaided eye and using a microtiter plate optical density reader (OD 600 nm).
# Tables 2, 3, 4 and 5 provide the minimum inhibitory concentration (MIC) in microgram per milliliter of the compounds of present invention obtained against the A. baumannii strain ATCC19606 (Tables 2, 3, 4 and 5).
row,MIC,SMILES
1,16 µg/mL,"CN1C(=O)[C@H](CCCCN)NC(=O)[C@H](CCCN)NCc2ccccc2Sc2ccc(Cl)cc2CNC(=O)[C@@H]1Cc1cn(C)c2cc(Cl)ccc12 [Example 19, (12S,15S,18S)-15-(4-Amino-butyl)-18-(3-amino-propyl)-6-chloro-12-(6-chloro-1-methyl-1H-indol-3-ylmethyl)-13-methyl-2-thia-10,13,16,19-tetraaza-tricyclo[19.4.0.0*3,8*]pentacosa-1(21),3,5,7,22,24-hexaene-11,14,17-trione]"
2,2 µg/mL,"C[C@@H]1NC(=O)[C@H](Cc2c[nH]c3ccccc23)N(C)C(=O)[C@H](CCCCN)NC(=O)[C@H](CCCN)NCc2ccccc2Sc2ccc(Cl)cc21 [Example 20, (9S,12S,15S,18S)-15-(4-Amino-butyl)-18-(3-amino-propyl)-6-chloro-12-(1H-indol-3-ylmethyl)-9,13-dimethyl-2-thia-10,13,16,19-tetraaza-tricyclo[19.4.0.0*3,8*]pentacosa-1(25),3,5,7,21,23-hexaene-11,14,17-trione]"
3,1 µg/mL,"CN1C(=O)[C@H](CCCCN)NC(=O)[C@H](CCCN)NCc2ccccc2Sc2ccc(Cl)c(Cl)c2CNC(=O)[C@@H]1Cc1c[nH]c2ccccc12 [Example 21, (12S,15S,18S)-15-(4-Amino-butyl)-18-(3-amino-propyl)-6,7-dichloro-12-(1H-indol-3-ylmethyl)-13-methyl-2-thia-10,13,16,19-tetraaza-tricyclo[19.4.0.0*3,8*]pentacosa-1(25),3,5,7,21,23-hexaene-11,14,17-trione]"
4,32 µg/mL,"CN1C(=O)[C@H](CCCCN)NC(=O)[C@H](CCCN)NCc2ccccc2Sc2cccc(Cl)c2CNC(=O)[C@@H]1Cc1c[nH]c2ccccc12 [Example 22, (12S,15S,18S)-15-(4-Amino-butyl)-18-(3-amino-propyl)-7-chloro-12-(1H-indol-3-ylmethyl)-13-methyl-2-thia-10,13,16,19-tetraaza-tricyclo[19.4.0.0*3,8*]pentacosa-1(25),3,5,7,21,23-hexaene-11,14,17-trione]"
5,0.5 µg/mL,"CN1C(=O)[C@H](CCCCN)NC(=O)[C@H](CCCN)NCc2ccccc2Sc2c(Cl)ccc(Cl)c2CNC(=O)[C@@H]1Cc1c[nH]c2ccccc12 [Example 23, (12S,15S,18S)-15-(4-Amino-butyl)-18-(3-amino-propyl)-4,7-dichloro-12-(1H-indol-3-ylmethyl)-13-methyl-2-thia-10,13,16,19-tetraaza-tricyclo[19.4.0.0*3,8*]pentacosa-1(25),3,5,7,21,23-hexaene-11,14,17-trione]"
6,1 µg/mL,"CN1C(=O)[C@H](CCCCN)NC(=O)[C@H](CCCN)NCc2ccccc2Sc2c(Cl)ccc(C(F)(F)F)c2CNC(=O)[C@@H]1Cc1c[nH]c2ccccc12 [Example 24, (12S,15S,18S)-15-(4-Amino-butyl)-18-(3-amino-propyl)-4-chloro-12-(1H-indol-3-ylmethyl)-13-methyl-7-trifluoromethyl-2-thia-10,13,16,19-tetraaza-tricyclo[19.4.0.0*3,8*]pentacosa-1(25),3,5,7,21,23-hexaene-11,14,17-trione]"
7,1 µg/mL,"CN1C(=O)[C@H](CCCCN)NC(=O)[C@H](CCCN)NCc2ccccc2Sc2c(Cl)cc(C(F)(F)F)cc2CNC(=O)[C@@H]1Cc1c[nH]c2ccccc12 [Example 25, (12S,15S,18S)-15-(4-Amino-butyl)-18-(3-amino-propyl)-4-chloro-12-(1H-indol-3-ylmethyl)-13-methyl-6-trifluoromethyl-2-thia-10,13,16,19-tetraaza-tricyclo[19.4.0.0*3,8*]pentacosa-1(25),3,5,7,21,23-hexaene-11,14,17-trione]"
8,1 µg/mL,"CN1C(=O)[C@H](CCCCN)NC(=O)[C@H](CCCN)NCc2ccccc2Sc2c(Cl)ccc(F)c2CNC(=O)[C@@H]1Cc1c[nH]c2ccccc12 [Example 26, (12S,15S,18S)-15-(4-Amino-butyl)-18-(3-amino-propyl)-4-chloro-7-fluoro-12-(1H-indol-3-ylmethyl)-13-methyl-2-thia-10,13,16,19-tetraaza-tricyclo[19.4.0.0*3,8*]pentacosa-1(25),3,5,7,21,23-hexaene-11,14,17-trione]"
